In the supplement of paper PMC10307832:

Compound: CC1CC(=O)N(C2=CN=C(N=C2N1C3CCCC3)NC4=C(C=C(C=C4)C(=O)NC5CCN(CC5)C)OC)C [NPK76-II-72-1] + CS(=O)(=O)N1CCN(Cc2cc3nc(-c4cccc5[nH]ncc45)nc(N4CCOCC4)c3s2)CC1 [Pictilisib] (partner 1 µM)
Assay: relative viability (nuclei count vs DMSO), 5 days (fraction); higher = more cells survive
Conditions: first compound 0.1 µM
Procedure, shortened: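 A single step with final 0.05% Triton X-100, 1% formaldehyde and 1 ug/ml Hoechst fixed the cells and stained nuclei 5 days after treatment. Lung cancer cell lines in 1536-well plates had been treated by pin tool the day after seeding with one drug alone or a fixed anchor-drug dose plus five library-drug doses (not always all listed) in √10 steps, and nuclei were counted on 4× images. Relative viability is the ratio of nuclei in treated wells to nuclei in vehicle wells, taken as the median of duplicate plates.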

With HOP-62 as the cell line, how does the relative viability read?
The relative viability was 0.778.

For HCC-44, which relative viability is on record?
Its relative viability is 0.624.

How did the relative viability turn out when A549 was run?
The relative viability was 0.535.

With LU99A as the cell line, how does the relative viability read?
The relative viability was 0.411.

Which relative viability does the source give for BEN here?
The relative viability was 0.526.

How did the relative viability turn out when HARA was run?
Its relative viability is 0.46.

For HCC-78, which relative viability is on record?
The relative viability was 0.207.

For NCI-H322M, which relative viability is on record?
The relative viability was 0.513.

With LCLC-97TM1 as the cell line, how does the relative viability read?
Its relative viability is 0.168.

How did the relative viability turn out when NCI-H2009 was run?
Its relative viability is 0.897.

Which relative viability does the source give for A-427 here?
Its relative viability is 0.685.

Which relative viability does the source give for NCI-H661 here?
The relative viability was 0.422.

NCI-H1734 was tested. Which relative viability did it give?
Its relative viability is 0.383.

Which relative viability does the source give for NCI-H460 here?
The relative viability was 0.367.

How did the relative viability turn out when NCI-H2347 was run?
Its relative viability is 0.727.

Which relative viability does the source give for SK-LU-1 here?
Its relative viability is 0.514.

With NCI-H1395 as the cell line, how does the relative viability read?
The relative viability was 0.627.

Same assay, conditions: first compound 0.3162 µM

How did the relative viability turn out when NCI-H2085 was run?
The relative viability was 0.398.

Calu-6 was tested. Which relative viability did it give?
The relative viability was 0.757.

HCC-366 was tested. Which relative viability did it give?
The relative viability was 0.196.

NCI-H1666 was tested. Which relative viability did it give?
The relative viability was 0.381.

How did the relative viability turn out when NCI-H596 was run?
The relative viability was 0.368.

With NCI-H2087 as the cell line, how does the relative viability read?
The relative viability was 0.722.

With SK-MES-1 as the cell line, how does the relative viability read?
Its relative viability is 0.376.

H3255 was tested. Which relative viability did it give?
The relative viability was 0.251.

How did the relative viability turn out when COR-L23 was run?
Its relative viability is 0.763.

For COR-L 105, which relative viability is on record?
Its relative viability is 0.411.

For IA-LM, which relative viability is on record?
The relative viability was 0.243.

LOU-NH91 was tested. Which relative viability did it give?
Its relative viability is 0.502.

For NCI-H2405, which relative viability is on record?
Its relative viability is 0.453.

With HOP-62 as the cell line, how does the relative viability read?
The relative viability was 0.696.

With HCC-44 as the cell line, how does the relative viability read?
Its relative viability is 0.587.

A549 was tested. Which relative viability did it give?
The relative viability was 0.529.

How did the relative viability turn out when LU99A was run?
The relative viability was 0.292.

With BEN as the cell line, how does the relative viability read?
The relative viability was 0.606.

For HARA, which relative viability is on record?
Its relative viability is 0.26.

For NCI-H322M, which relative viability is on record?
The relative viability was 0.576.

With LCLC-97TM1 as the cell line, how does the relative viability read?
The relative viability was 0.173.

Which relative viability does the source give for NCI-H2009 here?
Its relative viability is 0.781.

For A-427, which relative viability is on record?
Its relative viability is 0.632.

NCI-H1734 was tested. Which relative viability did it give?
The relative viability was 0.411.

How did the relative viability turn out when NCI-H460 was run?
The relative viability was 0.34.

Which relative viability does the source give for NCI-H2347 here?
Its relative viability is 0.773.

For SK-LU-1, which relative viability is on record?
Its relative viability is 0.645.

How did the relative viability turn out when NCI-H1395 was run?
Its relative viability is 0.632.

Same assay, conditions: first compound 1 µM

How did the relative viability turn out when NCI-H2085 was run?
The relative viability was 0.507.

Which relative viability does the source give for Calu-6 here?
Its relative viability is 1.05.

HCC-366 was tested. Which relative viability did it give?
The relative viability was 0.186.

With NCI-H1666 as the cell line, how does the relative viability read?
Its relative viability is 0.469.

With NCI-H596 as the cell line, how does the relative viability read?
Its relative viability is 0.429.

Which relative viability does the source give for LK-2 here?
Its relative viability is 0.582.

With NCI-H2087 as the cell line, how does the relative viability read?
Its relative viability is 1.04.

How did the relative viability turn out when SK-MES-1 was run?
The relative viability was 0.318.

With H3255 as the cell line, how does the relative viability read?
The relative viability was 0.481.

How did the relative viability turn out when COR-L23 was run?
Its relative viability is 0.869.

How did the relative viability turn out when COR-L 105 was run?
Its relative viability is 0.451.

Which relative viability does the source give for IA-LM here?
The relative viability was 0.334.

How did the relative viability turn out when LOU-NH91 was run?
The relative viability was 0.597.

With NCI-H2170 as the cell line, how does the relative viability read?
Its relative viability is 0.333.

NCI-H2405 was tested. Which relative viability did it give?
Its relative viability is 0.452.

How did the relative viability turn out when HOP-62 was run?
Its relative viability is 0.613.

With HCC-44 as the cell line, how does the relative viability read?
Its relative viability is 0.685.

For A549, which relative viability is on record?
The relative viability was 0.572.

Which relative viability does the source give for LU99A here?
The relative viability was 0.334.

With BEN as the cell line, how does the relative viability read?
Its relative viability is 0.55.

For HARA, which relative viability is on record?
The relative viability was 0.377.

With HCC-78 as the cell line, how does the relative viability read?
Its relative viability is 0.182.

How did the relative viability turn out when NCI-H322M was run?
The relative viability was 0.513.

With LCLC-97TM1 as the cell line, how does the relative viability read?
The relative viability was 0.207.

With NCI-H2009 as the cell line, how does the relative viability read?
Its relative viability is 0.886.

Which relative viability does the source give for A-427 here?
Its relative viability is 0.706.

NCI-H661 was tested. Which relative viability did it give?
The relative viability was 0.508.

NCI-H1734 was tested. Which relative viability did it give?
The relative viability was 0.446.

Which relative viability does the source give for NCI-H460 here?
The relative viability was 0.365.

How did the relative viability turn out when NCI-H2347 was run?
The relative viability was 0.631.

How did the relative viability turn out when SK-LU-1 was run?
The relative viability was 0.584.

How did the relative viability turn out when NCI-H1395 was run?
Its relative viability is 0.628.

Compound: CC1CC(=O)N(C2=CN=C(N=C2N1C3CCCC3)NC4=C(C=C(C=C4)C(=O)NC5CCN(CC5)C)OC)C [NPK76-II-72-1]
Assay: relative viability (nuclei count vs DMSO), 5 days (fraction); higher = more cells survive
Conditions: 0.01 µM
Procedure, shortened: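 Five library-drug doses, separated by factors of √10, were pinned into 1536-well plates holding lung cancer cell lines after an overnight stay at 37 °C. Cells were fixed, permeabilised and Hoechst-stained in one step after 5 days without medium change, then imaged at 4×. Viability compares treated-well with vehicle-well nuclei, counted in MetaXpress, as a median across plates. Passing plates had control CV below 25% and at least one doubling.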

Which relative viability does the source give for NCI-H2085 here?
The relative viability was 0.921.

How did the relative viability turn out when Calu-6 was run?
Its relative viability is 0.988.

For HCC-366, which relative viability is on record?
The relative viability was 0.994.
